Row | melting point | Compound
1 | 135 to 137 °C | CC(=O)NCC1CC1c1cccc2nc(C(F)(F)F)cn12 (stereo not shown) [Example 54, N-({2-[2-(trifluoromethyl)imidazo[1,2-a]pyridin-5-yl]cyclopropyl}methyl)acetamide]
2 | 117 to 118 °C | Cc1cc2c([C@H]3C[C@@H]3CNC(=O)OC(C)(C)C)cccn2n1 [Example 41, tert-butyl{[(1S,2S)-2-(2-methylpyrazolo[1,5-a]pyridin-4-yl)cyclopropyl]methyl}carbamate]
3 | 148 to 151 °C | CCC(=O)NCC1CC1c1cccc2nc(C(F)(F)F)cn12 (stereo not shown) [Example 55, N-({2-[2-(trifluoromethyl)imidazo[1,2-a]pyridin-5-yl]cyclopropyl}methyl)propanamide]
4 | 112 to 113 °C | Cc1cc2c([C@@H]3C[C@H]3CNC(=O)c3ccccc3)cccn2n1 (relative stereo) [Example 50, trans-N-{[2-(2-methylpyrazolo[1,5-a]pyridin-4-yl)cyclopropyl]methyl}benzamide]
5 | 118 to 119 °C | Cc1cc2c([C@@H]3C[C@H]3CNC(=O)OC(C)(C)C)cccn2n1 [Example 42, tert-butyl{[(1R,2R)-2-(2-methylpyrazolo[1,5-a]pyridin-4-yl)cyclopropyl]methyl}carbamate]

Further lines, the molecule ahead of its results:

Row | Compound | melting point
6 | Cn1cc2c([C@H]3C[C@@H]3CNC(=O)OC(C)(C)C)cccc2n1 [Example 8, tert-butyl{[(1S,2S)-2-(2-methyl-2H-indazol-4-yl)cyclopropyl]methyl}carbamate] | 141 to 142 °C
7 | Cn1cc2c([C@@H]3C[C@H]3CNC(=O)OC(C)(C)C)cccc2n1 (relative stereo) [Example 7, trans-tert-butyl{[2-(2-methyl-2H-indazol-4-yl)cyclopropyl]methyl}carbamate] | 120 to 121 °C
8 | Cn1cc2c([C@@H]3C[C@H]3CNC(=O)OC(C)(C)C)cccc2n1 [Example 9, tert-butyl{[(1R,2R)-2-(2-methyl-2H-indazol-4-yl)cyclopropyl]methyl}carbamate] | 140 to 142 °C
9 | Cn1cc2c([C@@H]3C[C@H]3CNC(=O)c3ccc(Br)cc3)cccc2n1 [Example 15, 4-bromo-N-{[(1R,2R)-2-(2-methyl-2H-indazol-4-yl)cyclopropyl]methyl}benzamide] | 140 to 142 °C
10 | Cc1cc2c([C@@H]3C[C@H]3CNC(=O)OC(C)(C)C)cccn2n1 (relative stereo) [Example 40, trans-tert-butyl{[2-(2-methylpyrazolo[1,5-a]pyridin-4-yl)cyclopropyl]methyl}carbamate] | 105 to 107 °C

Source: patent US8110585B2, “Bicyclic compound and pharmaceutical use thereof” (Takeda Pharmaceutical Company Limited, priority 2007, dated 2012)
